From article PMC6753678, “Fueling Open Innovation for Malaria Transmission-Blocking Drugs: Hundreds of Molecules Targeting Early Parasite Mosquito Stages” (Frontiers in Microbiology, 2019)
Like-named read-outs stand apart in the source and are kept apart here.

Assays:
[1] = tested on: HepG2 cells; test: HepG2 cytotoxicity assay; conditions: for IC50: read-out: HepG2 cytotoxicity assay IC50, dose response confirmation; for Pb ODA (this manuscript) HepG2 cytoxicity: HepG2 cytotoxicity listed with the Pb ODA data set (this manuscript)
How it was run: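 Cells at 2,500 per well in MEM with 10% fetal bovine serum and 1% NEAA were exposed to test compounds for 48 h at 37°C, 5% CO2. Viability was read by fluorescence, with percent inhibition calculated against 50 μM doxorubicin (positive) and DMSO (negative) controls.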

[2] = tested on: 3D7-strain P. falciparum asexual parasites; test: P. falciparum asexual growth inhibition assay (Pf GIA); assay type: cell-based, Plasmodium falciparum; conditions: dose response confirmation; read-out: Pf asexual growth inhibition assays IC50
How it was run: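 Read-out was lactate dehydrogenase activity measured by absorbance at 650 nm after freezing and thawing, against 50 μM chloroquine and DMSO controls. Before that, asexual 3D7 cultures (0.25% parasitemia, 2% hematocrit) had 72 h dose-response compound exposure at 37°C in 5% CO2/5% O2/90% N2; three independent replicates averaged.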

[3] = tested on: P. berghei ookinete development; conditions: for % inhibition, Replicate A / % inhibition, Replicate B: primary screen at 1 μM
[4] = unified HepG2 value across the three screens
[5] = read-out: Pb ODA IC50, this manuscript
[6] = read-out: Pb Ookinete development assay IC50, dose response confirmation
[7] = HepG2 values of the three screens unified
[8] = read-out: Pb ODA (this manuscript) IC50, P. berghei ookinete development assay, this manuscript

Row | Compound | IC50 [1] [nM] | Unified cytotox [1, 4] [µM] | IC50 [2] [nM] | Is compound selective in assay? Pb ODA active? ([3]; 1: YES, 0: NO) | % inhibition, Replicate A [3] [%] | % inhibition, Replicate B [3] [%] | IC50 [3, 5] [nM] | IC50 [3, 6] [nM] | HepG2 cytoxicity (Pb ODA, this manuscript) [1] [µM] | Unified cytotox [1, 7] [µM] | Pb ODA (this manuscript) HepG2 cytoxicity [1] [µM] | Is compound selective in assay? Pb ODA active? [3] | IC50 [3, 8] [nM]
1 | COc1ccc2nccc(N3CCC(NCCNCc4ccc5c(n4)NC(=O)CO5)C3)c2n1.Cl (stereo not shown) [TCMDC-134548] | 42700 | 42.66 | 1.4 | 1 (1: YES) | 4.96 | 51.82 | 1630 | 1620 | – | – | – | – | –
2 | COCCN(C)c1ccc(C(=O)Nc2ccccc2)cc1NS(=O)(=O)Cc1ccccc1.O=C(O)C(F)(F)F [TCMDC-134575] | 100000 | 100.00 | 606 | 1 (1: YES) | 51.04 | 48.31 | – | 1400 | – | – | – | – | –
3 | COc1ccc2ncc(C)c(CCN3CCC(NCc4ccc5c(n4)NC(=O)CS5)CC3)c2c1.Cl [TCMDC-134648] | 34700 | – | 872 | 1 (1: YES) | 66.89 | 104.06 | 2550 | 2550 | 34.67 | 34.67 | – | – | –
4 | COc1ccc2ncc(Cl)c(NCC3(O)CCC(NCc4ccc5c(n4)NC(=O)CS5)CC3)c2n1.Cl (stereo not shown) [TCMDC-134671] | 12600 | – | 1210 | 1 (1: YES) | 92.69 | 100.49 | 810 | 813 | 12.59 | 12.59 | – | – | –
5 | Cc1[nH]c(C)c(-c2ccc(C#Cc3ccc(F)cc3F)cc2)c(=O)c1Br [TCMDC-134692] | 100000 | – | 16 | – | 89.67 | 88.19 | – | 399 | – | – | 100.00 | 1 (key: 1: YES; 0: NO) | 400
6 | COc1ccc2nccc([C@@H](O)CN3C4CCC3CC(NCc3ccc5c(n3)NC(=O)CS5)C4)c2n1.Cl (stereo partly shown) [TCMDC-134697] | 38900 | – | 1060 | 0 (0: NO) | 46.01 | 53.20 | – | 4000 | 38.90 | 38.90 | – | – | –
7 | COc1cc(OC)cc(-c2nn(-c3ccc([N+](=O)[O-])cc3C#N)c(=S)n2Cc2ccco2)c1 [TCMDC-134715] | 100000 | 100.00 | 744 | 1 (1: YES) | 26.66 | 59.14 | 1600 | 1600 | – | – | – | – | –
8 | N#Cc1cc([N+](=O)[O-])ccc1-n1nc(C(N)=O)n(Cc2cccc(F)c2)c1=S [TCMDC-134721] | 34700 | 34.67 | 650 | 1 (1: YES) | 66.73 | 70.30 | 1120 | 1120 | – | – | – | – | –
9 | Cc1[nH]c(C)c(-c2ccc(-c3ccc(OC(F)(F)F)cc3)cc2)c(=O)c1Br [TCMDC-134726] | 7760 | – | 19 | – | 101.74 | 103.66 | – | 26 | – | – | 7.76 | 1 (key: 1: YES; 0: NO) | 25.7
10 | Cc1[nH]c(C)c(-c2ccc(Oc3ccc(F)cc3)cc2)c(=O)c1Cl [TCMDC-134728] | 56200 | – | 19 | 1 (1: YES) | 96.35 | 103.17 | 50 | 49 | 56.23 | 56.23 | – | – | –
11 | C/C=C/COc1ccc(-c2c(C)[nH]c(C)c(Cl)c2=O)cc1 [TCMDC-134729] | 100000 | – | 281 | 1 (1: YES) | 83.52 | 96.22 | 470 | 469 | – | 100.00 | – | – | –
12 | COc1ccc2nccc([C@@H](O)CN3CCC(NC(=O)c4cc5c(F)cc(F)cc5[nH]4)CC3)c2n1 [TCMDC-134945] | 10500 | – | 769 | – | 54.14 | 76.92 | – | 415 | – | – | 10.47 | 1 (key: 1: YES; 0: NO) | 420
13 | Cc1cccc(Nc2nc(NCCCCN)nc3cc[nH]c(=O)c23)c1.O=C(O)C(F)(F)F [TCMDC-134946] | 28800 | 28.84 | 487 | 0 (0: NO) | 57.54 | 45.06 | 3060 | 3060 | – | – | – | – | –
14 | CC1CN(Cc2cccc(C#N)c2)CCN1c1ccc(NC(=O)c2cccs2)cc1.O=C(O)C(F)(F)F (stereo not shown) [TCMDC-134969] | 3020 | – | 78 | – | 50.06 | 40.18 | – | 1640 | – | – | 3.02 | 0 (key: 1: YES; 0: NO) | –
15 | CCC(C)CN1CCN(c2ccc(NC(=O)c3cccs3)cc2)C(C)C1.O=C(O)C(F)(F)F (stereo not shown) [TCMDC-134996] | 60300 | – | 753 | – | 97.72 | 83.44 | – | 1050 | – | – | 60.26 | 1 (key: 1: YES; 0: NO) | –
16 | CC1CN(Cc2ccccc2)CCN1c1ccc(NC(=O)c2cccs2)cc1.O=C(O)C(F)(F)F (stereo not shown) [TCMDC-135005] | 57500 | – | 504 | – | 105.18 | 99.00 | – | 732 | – | – | 57.54 | 1 (key: 1: YES; 0: NO) | 730
17 | CC1CN(Cc2cccc(F)c2)CCN1c1ccc(NC(=O)c2cccs2)cc1.O=C(O)C(F)(F)F (stereo not shown) [TCMDC-135009] | 120000 | – | 242 | – | 59.80 | 66.69 | – | 420 | – | – | 120.23 | 1 (key: 1: YES; 0: NO) | –
18 | O=C(Nc1ccc(N2CCCN(Cc3cccc(F)c3)CC2)cc1)c1cccs1.O=C(O)C(F)(F)F [TCMDC-135012] | 78500 | – | 650 | – | 50.47 | 51.73 | – | 1900 | – | – | 78.52 | 1 (key: 1: YES; 0: NO) | 1900
19 | CN(Cc1cccc(F)c1)C1CCN(c2cc(NC(=O)c3ccc(F)cc3)ccn2)CC1.O=C(O)C(F)(F)F [TCMDC-135018] | 140 | 0.14 | 31 | 0 (0: NO) | 54.82 | 42.75 | 6060 | 6060 | – | – | – | – | –
20 | O=C(O)C(F)(F)F.O=c1[nH]ccc2nc(N[C@@H]3CCCNC3)nc(Nc3ccc(S(=O)(=O)N4CCOCC4)cc3)c12 [TCMDC-135038] | 45700 | 45.71 | 347 | 1 (1: YES) | 53.41 | 58.16 | 1550 | 1540 | – | – | – | – | –
21 | C=CCOc1ccc(-c2c(C)[nH]c(C)c(Br)c2=O)cc1 [TCMDC-135042] | 7080 | – | 226 | – | 92.87 | 107.55 | – | 700 | – | – | 7.08 | 1 (key: 1: YES; 0: NO) | –
22 | COCCn1c(-c2cccc(Cl)c2)nn(-c2ccc([N+](=O)[O-])cc2Cl)c1=S [TCMDC-135130] | 100000 | 100.00 | 947 | 1 (1: YES) | 51.94 | 48.77 | – | 1600 | – | – | – | – | –
23 | COc1ccc2ncc(C#N)c(CCN3C4CCC3CC(NCc3ccc5c(n3)NC(=O)CS5)C4)c2c1.Cl (stereo not shown) [TCMDC-135180] | 6460 | – | 630 | 0 (0: NO) | 66.14 | 72.52 | 3070 | 3070 | 6.46 | 6.46 | – | – | –
24 | C#C[C@H]1O[C@@H](n2cnc3c(Nc4cc(Br)cc(C(F)(F)F)c4)ncnc32)[C@H](O)[C@@H]1O [TCMDC-135185] | 57500 | 57.54 | 3380 | 1 (1: YES) | 92.13 | 83.74 | 530 | 533 | – | – | – | – | –
